Data reported in patent publication US20260103444A1, “8-HYDROXYQUINOLINE COMPOUND AND USE THEREOF” (OSAKA UNIVERSITY, priority 2022, published 2026).
Blank lines part the entries; values can stand above or below the compound they belong to.

Columns and labels:
cMLCK [1] = target: T1, cMLCK (Homo sapiens, UniProt Q32MK0); assay: cMLCK activity, ADP-Glo kinase assay; assay type: biochemical; settings: for cMLCK activity compared with the compound of Synthesis Example 1: ADP-Glo kinase assay, relative to Synthesis Example 1 (LEU-0992); for cMLCK activation action, dose dependence: ADP-Glo assay; for specificity for cMLCK: versus smMLCK and skMLCK
T1 construct: BTN (vendor prefix; by own knowledge, biotinylated); purchased Carna Bioscience #02-460-20N
Method: The cMLCK activation action by 8-hydroxyquinoline compounds was measured by using the ADP-Glo kinase assay (Promega) according to the manufacturer's protocol.
(§1) Purchased purified human cMLCK (BTN-cMLCK, #02-460-20N, Carna Bioscience) as well as in-house purified calmodulin (NM 006888) and cardiac myosin regulatory light chain (MLC2v) (NM 000432) were used to perform phosphorylation to thereby establish an in vitro kinase assay system for measuring cMLCK activity according to the ADP-Glo assay (Promega) or Kumagai method. This system was then applied to high-throughput screening (HTS). The HTS was performed by using multiple domestic compound libraries (compound concentration: 10 μM), and structural development of candidate compounds was performed, thereby developing cMLCK activators based on the 8-hydroxyquinoline (8HQ) skeleton.

[2] = target: T2, human smooth muscle-type MLCK (smMLCK) (Homo sapiens, UniProt Q15746); assay: specificity: in-vitro kinase reaction with smMLCK and its substrate MYL9, ADP-Glo assay; assay type: biochemical; settings: smMLCK with substrate MYL9, ADP-Glo assay
T2 construct: made in house
Method: (§2) Next, the specificity of the two 8HQ compounds (LEU-1142 and LEU-1170) for human smooth muscle-type MLCK (smMLCK, NM 053025) and human skeletal muscle-type MLCK (skMLCK, NM 033118), which are cMLCK family proteins, was examined (FIGS. 7-1 and 7-2). In-vitro kinase reactions were performed using smMLCK and its substrate MYL9 (NM 006097), and skMLCK and its substrate MYLPF (NM 013292), which had been all purified in-house, and their activity was measured according to the ADP-Glo assay.

cMLCK [3] = target: T1, cMLCK; assay: enzymatic study (Michaelis-Menten kinetics) of cMLCK; assay type: biochemical
Method: as §1

[4] = target: T3, human skeletal muscle-type MLCK (skMLCK) (Homo sapiens, UniProt Q9H1R3); assay: specificity: in-vitro kinase reaction with skMLCK and its substrate MYLPF, ADP-Glo assay; assay type: biochemical; settings: skMLCK with substrate MYLPF
T3 construct: made in house
Method: as §2

cMLCK [5] = target: T1, cMLCK; assay: phosphorylation of MLC2v by phos-tag PAGE; assay type: biochemical
[6] = phase 3 clinical trial; cited from earlier work
[7] = system: wild-type human iPS cardiomyocytes; assay: intracellular calcium dynamics (Cal-520, FDSS kinetic plate imager); assay type: cell-based; settings: wild-type iPSC-CMs, various concentrations, with pacing
Method: CTAs: average changes of calcium transient amplitude at systole, PWD50: pulse width duration measured at 50% CTAs
Wild-type iPSC-CMs were seeded on a 96-well plate at a density of 5×10^4 cells/well and cultured in DMEM with 10% FBS for 24 hours. Subsequently, Cal-520 (ab171868, Abcam) was then added to a final concentration of 5 μM, and the cells were cultured for an additional hour. After removing the medium and washing with HHBS buffer, the buffer was replaced with FluoroBrite DMEM containing various concentrations of LEUO-1154, isoproterenol (positive control group: catecholamine stimulation), or DMSO (negative control group). Intracellular calcium dynamics was then measured with pacing by using an FDSS/ρCell kinetic plate imager (Hamamatsu Photonics K. K.).

SMILES: Oc1cccnc1NC(c1ccc(F)cc1)c1ccc2cccnc2c1O (stereo not drawn) [LEU-0942, 7-{(4-fluorophenyl) [(3-hydroxypyridin-2-yl)amino]methyl}quinolin-8-ol]
cMLCK activity compared with the compound of Synthesis Example 1 (cMLCK [1]): weaker

SMILES: Oc1c(C(c2ccc(C(F)(F)F)cc2)N2CCCCC2)ccc2cccnc12 (stereo not drawn) [LEU-0943, 7-(piperidin-1-yl [4-(trifluoromethyl)phenyl]methyl}quinolin-8-ol]
cMLCK activity compared with the compound of Synthesis Example 1 (cMLCK [1]): weaker

SMILES: O=[N+]([O-])c1cccc(C(Nc2nccs2)c2ccc3cccnc3c2O)c1 (stereo not drawn) [LEU-0944, 7-[(3-nitrophenyl) (thiazol-2-ylamino)methyl]quinolin-8-ol]
cMLCK activity compared with the compound of Synthesis Example 1 (cMLCK [1]): equivalent

SMILES: Oc1ccccc1C(Nc1nccs1)c1ccc2cccnc2c1O (stereo not drawn) [LEU-0945, 7-[(2-hydroxyphenyl) (thiazol-2-ylamino)methyl]quinolin-8-ol]
cMLCK activity compared with the compound of Synthesis Example 1 (cMLCK [1]): weaker

SMILES: CCC(=O)NC(c1ccc(OC)cc1)c1cc([N+](=O)[O-])c2cccnc2c1O (stereo not drawn) [LEU-0993]
cMLCK activity compared with the compound of Synthesis Example 1 (cMLCK [1]): equivalent

SMILES: COC(=O)N1CCN(Cc2cccc(NC(=O)Nc3ccc(C)nc3)c2F)CC1 [Omecamtiv mecarbil (OM), Omecamtiv mecarbil]
time to onset of heart failure [6]: prolonging the time to onset of heart failure without worsening prognosis

SMILES: CC(C)NCC(O)c1ccc(O)c(O)c1 (stereo not drawn) [isoproterenol, reference compound]
calcium dynamics [7]: enhanced calcium dynamics

More lines, now with the values ahead:

cMLCK activity compared with the compound of Synthesis Example 1 (cMLCK [1]): weaker
SMILES: COc1ccc(C(NC(C)=O)c2cc([N+](=O)[O-])c3cccnc3c2O)cc1 (stereo not drawn) [LEU-0990, N-[(8-hydroxy-5-nitroquinolin-7-yl) (4-methoxyphenyl)methyl]acetamide]

cMLCK activity compared with the compound of Synthesis Example 1 (cMLCK [1]): equivalent
SMILES: COc1ccc(C(Nc2ccccn2)c2cc(Cl)c3cccnc3c2O)cc1[N+](=O)[O-] (stereo not drawn) [LEU-0997, 5-chloro-7-[(4-methoxy-3-nitrophenyl) (pyridin-2-ylamino)methyl]quinolin-8-ol]

cMLCK activity compared with the compound of Synthesis Example 1 (cMLCK [1]): weaker
SMILES: Oc1c(C(Nc2ccccn2)c2cccnc2)cc(Cl)c2cccnc12 (stereo not drawn) [LEU-0998, 5-chloro-7-[(pyridin-2-ylamino) (pyridin-3-yl)methyl]quinolin-8-ol]

cMLCK activity compared with the compound of Synthesis Example 1 (cMLCK [1]): weaker
SMILES: Oc1c(CN2CCC(Cc3ccccc3)CC2)cc(Cl)c2cccnc12 [LEU-0999, 7-[(4-benzylpiperidin-1-yl)methyl]-5-chloroquinolin-8-ol]

cMLCK activity compared with the compound of Synthesis Example 1 (cMLCK [1]): equivalent
SMILES: Oc1c(C(Nc2nccs2)c2ccccc2)ccc2cccnc12 (stereo not drawn) [LEU-1008, 7-[phenyl(thiazol-2-ylamino)methyl]quinolin-8-ol]

cMLCK activity compared with the compound of Synthesis Example 1 (cMLCK [1]): weaker
SMILES: CCCCC(=O)NC(c1ccc(OC)cc1)c1cc(Cl)c2cccnc2c1O (stereo not drawn) [LEU-1018, N-[(5-chloro-8-hydroxyquinolin-7-yl) (4-methoxyphenyl)methyl]pentanamide]

cMLCK activity compared with the compound of Synthesis Example 1 (cMLCK [1]): weaker
SMILES: CCCCC(=O)NC(c1ccc(OC)cc1)c1ccc2cccnc2c1O (stereo not drawn) [LEU-1128, N-[(8-hydroxyquinolin-7-yl) (4-methoxyphenyl)methyl]pentanamide]

specificity for smMLCK [2]: Neither compound showed specificity
effect on Km (cMLCK [3]): did not affect Km
cMLCK activation action, dose dependence (cMLCK [1]): dose-dependent
specificity for cMLCK (cMLCK [1]): high specificity for cMLCK
specificity for skMLCK [4]: Neither compound showed specificity
phosphorylation of MLC2v (cMLCK [5]): increase the phosphorylation of MLC2v
SMILES: CCCCC(=O)NC(c1ccc(-n2ccnc2)cc1)c1cc([N+](=O)[O-])c2cccnc2c1O (stereo not drawn) [LEU-1142, N-{[4-(1H-imidazol-1-yl)phenyl] (8-hydroxy-5-nitroquinolin-7-yl)methyl}pentanamide]

specificity for smMLCK [2]: Neither compound showed specificity
effect on Km (cMLCK [3]): did not affect Km
cMLCK activation action, dose dependence (cMLCK [1]): dose-dependent
specificity for cMLCK (cMLCK [1]): high specificity for cMLCK
specificity for skMLCK [4]: Neither compound showed specificity
phosphorylation of MLC2v (cMLCK [5]): increase the phosphorylation of MLC2v
SMILES: CCCCC(=O)NC(c1ccc(N2CCOCC2)nc1)c1cc([N+](=O)[O-])c2cccnc2c1O (stereo not drawn) [LEU-1170, N-[(8-hydroxy-5-nitroquinolin-7-yl) (6-morpholinopyridin-3-yl)methyl]pentanamide]

cMLCK activity compared with the compound of Synthesis Example 1 (cMLCK [1]): equivalent
SMILES: COc1ccc(C(NC(=O)C(C)C)c2cc([N+](=O)[O-])c3cccnc3c2O)cc1 (stereo not drawn) [LEU-1220, N-[(8-hydroxy-5-nitroquinolin-7-yl) (4-methoxyphenyl)methyl]isobutyramide]
